Measurements taken from US20160022714A1, “O-GLCNACYLATION TREATMENT FOR ISCHEMIC BRAIN INJURY” (THE RESEARCH FOUNDATION FOR MENTAL HYGIENE, INC., priority 2014, published 2016).
“Also recorded” adds a separate entry of the source.

What was measured:
[1] = test system: MCAO mouse model (cerebral ischemia-reperfusion injury); test: Scores of motor deficits (5-point neurological scoring) after MCAO for 2 hrs and reperfusion for 1 hr; type: in vivo; conditions: vs. saline
[2] = test system: O-GlcNAcylation of brain proteins; test: Western blots for O-GlcNAcylation of brain (striatum) homogenates from drug-treated mice 2 hrs after MCAO; type: in vivo, mouse; conditions: for brain O-GlcNAcylation level (change): mice treated prior to ischemia: DON 2.6 μg/mouse, glucosamine 10 mg/mouse, thiamet-G 160 μg/mouse, brain samples 2 hrs after ischemic insult
[3] = test system: MCAO mouse model (cerebral ischemia-reperfusion injury); test: Brain infarct size by TTC staining after MCAO for 2 hrs followed by reperfusion for 24 hrs; type: in vivo; conditions: vs. saline; for infarct size / ischemia-induced brain damage: DON 2.6 μg/mouse, glucosamine 10 mg/mouse, thiamet-G 160 μg/mouse prior to ischemia, 24 hrs after ischemia-reperfusion
[4] = DON 2.6 μg/mouse, glucosamine 10 mg/mouse, thiamet-G 160 μg/mouse prior to ischemia, one hour after ischemia-reperfusion

Compound	motor deficits [1, 4]	brain O-GlcNAcylation level (change) [2]	infarct size / ischemia-induced brain damage [3]	motor deficits ([1]; thiamet-G 0.1 μg/mouse, icy injection, MCAO 2 hrs, reperfusion 1 hr)	elevation of O-GlcNAcylation ([2]; thiamet-G 0.1 μg/mouse, icy injection 24 hrs before MCAO, compared with 10 mg glucosamine/mouse i.p.)	elevation of O-GlcNAcylation ([2]; thiamet-G initial dose 160 μg/mouse, 2 hrs after MCAO) [fold]	infarct size ([3]; thiamet-G 0.1 μg/mouse, icy injection, MCAO 2 hrs, reperfusion 24 hrs)
[N-]=[N+]=CC(=O)CC[C@H](N)C(=O)O [DON, 6-diazo-5-oxonorleucine]	aggravated; also recorded: increased	reduction; also recorded: reduced	aggravated; also recorded: increased				
CCN=C1N[C@@H]2[C@@H](O)[C@H](O)[C@@H](CO)O[C@@H]2S1 [thiamet-G]	more severe; also recorded: worsened	elevation	more severe brain damage; also recorded: worsened	reduced	comparable elevation	> 6	reduced
N[C@H]1C(O)O[C@H](CO)[C@@H](O)[C@@H]1O (stereo partly shown) [glucosamine]	ameliorated; also recorded: reduced	moderate elevation	ameliorated; also recorded: reduced				
